In patent publication US12624044B2, “SMARCA degraders and uses thereof” (Kymera Therapeutics, Inc., priority 2019, dated 2026):

Each compound was assayed against T1, SMARCA4 (Homo sapiens, UniProt P51532) (assay: SMARCA4 Western blot MV4-11 degradation). Details: MV4-11, MV4-11 cells, 24 h, read-out: SMARCA4 WB MV411 degradation 24 h: Average Dmax %.
T1 construct: SMARCA2 and SMARCA4 protein degradation in MV4-11 cells; endogenous in cells; host or cells: MV4-11
Format: cell-based
Procedure: Cells were seeded into 6-well plates (MV4-11: 4×10^6 cells/well/1 ml) and 1 ml of 2× compound solution was added into the well to make the final concentration and the plates were mixed well and incubated for 24 hours (No cytotoxicity was observed). The cell were collected with media and spun at 3000 rpm for 5 minutes. The supernatant was aspirated and the well and the cells were washed with cold PBS once and combined for centrifugation again; the supernatant aspirated again. 200 ul pre-chilled RIPAlysis buffer (Boston BioProducts BP-115D) with protease/phosphatase inhibitor (Roche 05892791001/Roche 04906837001) was directly added into the tube to lyze the cells for 20 minutes on ice. The cell lysate were collected into EP tubes and spun at 13000 rpm for 20 minutes and 72 ul supernatant was transferred to a fresh EP tube containing 18 ul of 5× loading buffer (Beyotime Bio P0015) to make the loading samples. The samples were heated to 100° C. for 10 minutes and cooled to RT and microcentrifuged. 20 ul of samples were loaded onto SDS-PAGE gel (Novex, WG1402BOX) and the gel was run at 80 V for 20 minutes and 120 V for 1.5 hours. The samples were electrotransfer to a NC membrane using wet-transfer method with 250 mA for 2.5 hours. The membrane was blocked with LICOR blocking buffer (LI-COR, 927-50000) for 1 hour. The membrane was washed three times with TBST (CST #9997S), 5 minutes each. Incubation was performed with primary antibody prepared in blocking buffer with 0.1% Tween-20 (Solarbio, P8220) at 4° C. overnight (Anti-SMARCA2/BRM antibody (ab15597) 1:500; Anti-BRG1 antibody [EPR3912] (ab108318) 1:1000; Rabbit anti-Baf180 antibody [EPR15860] (Abcam, ab196022) 1:1000; mouse anti-beta-Actin (8H10D10) (CST #3700) 1:10000). The membrane was washed three times with TBST, 5 minutes each. Incubation with secondary antibody was performed for 1 hour at RT (anti-rabbit IgG (Licor, 926-32211) 1:5000; anti-mouse IgG (LI-COR, 926-68070) 1:5000). The membrane was washed three times with TBST, 5 minutes each and lastly the LiCOR was read.
The letter codes for the percentage of SMARCA degradation after 24 hours (Dmax %) include: A (>90% degradation), B (>70-90% degradation), C (50-70% degradation), and D (<50% degradation).

T1 sequence (P51532 whole entry): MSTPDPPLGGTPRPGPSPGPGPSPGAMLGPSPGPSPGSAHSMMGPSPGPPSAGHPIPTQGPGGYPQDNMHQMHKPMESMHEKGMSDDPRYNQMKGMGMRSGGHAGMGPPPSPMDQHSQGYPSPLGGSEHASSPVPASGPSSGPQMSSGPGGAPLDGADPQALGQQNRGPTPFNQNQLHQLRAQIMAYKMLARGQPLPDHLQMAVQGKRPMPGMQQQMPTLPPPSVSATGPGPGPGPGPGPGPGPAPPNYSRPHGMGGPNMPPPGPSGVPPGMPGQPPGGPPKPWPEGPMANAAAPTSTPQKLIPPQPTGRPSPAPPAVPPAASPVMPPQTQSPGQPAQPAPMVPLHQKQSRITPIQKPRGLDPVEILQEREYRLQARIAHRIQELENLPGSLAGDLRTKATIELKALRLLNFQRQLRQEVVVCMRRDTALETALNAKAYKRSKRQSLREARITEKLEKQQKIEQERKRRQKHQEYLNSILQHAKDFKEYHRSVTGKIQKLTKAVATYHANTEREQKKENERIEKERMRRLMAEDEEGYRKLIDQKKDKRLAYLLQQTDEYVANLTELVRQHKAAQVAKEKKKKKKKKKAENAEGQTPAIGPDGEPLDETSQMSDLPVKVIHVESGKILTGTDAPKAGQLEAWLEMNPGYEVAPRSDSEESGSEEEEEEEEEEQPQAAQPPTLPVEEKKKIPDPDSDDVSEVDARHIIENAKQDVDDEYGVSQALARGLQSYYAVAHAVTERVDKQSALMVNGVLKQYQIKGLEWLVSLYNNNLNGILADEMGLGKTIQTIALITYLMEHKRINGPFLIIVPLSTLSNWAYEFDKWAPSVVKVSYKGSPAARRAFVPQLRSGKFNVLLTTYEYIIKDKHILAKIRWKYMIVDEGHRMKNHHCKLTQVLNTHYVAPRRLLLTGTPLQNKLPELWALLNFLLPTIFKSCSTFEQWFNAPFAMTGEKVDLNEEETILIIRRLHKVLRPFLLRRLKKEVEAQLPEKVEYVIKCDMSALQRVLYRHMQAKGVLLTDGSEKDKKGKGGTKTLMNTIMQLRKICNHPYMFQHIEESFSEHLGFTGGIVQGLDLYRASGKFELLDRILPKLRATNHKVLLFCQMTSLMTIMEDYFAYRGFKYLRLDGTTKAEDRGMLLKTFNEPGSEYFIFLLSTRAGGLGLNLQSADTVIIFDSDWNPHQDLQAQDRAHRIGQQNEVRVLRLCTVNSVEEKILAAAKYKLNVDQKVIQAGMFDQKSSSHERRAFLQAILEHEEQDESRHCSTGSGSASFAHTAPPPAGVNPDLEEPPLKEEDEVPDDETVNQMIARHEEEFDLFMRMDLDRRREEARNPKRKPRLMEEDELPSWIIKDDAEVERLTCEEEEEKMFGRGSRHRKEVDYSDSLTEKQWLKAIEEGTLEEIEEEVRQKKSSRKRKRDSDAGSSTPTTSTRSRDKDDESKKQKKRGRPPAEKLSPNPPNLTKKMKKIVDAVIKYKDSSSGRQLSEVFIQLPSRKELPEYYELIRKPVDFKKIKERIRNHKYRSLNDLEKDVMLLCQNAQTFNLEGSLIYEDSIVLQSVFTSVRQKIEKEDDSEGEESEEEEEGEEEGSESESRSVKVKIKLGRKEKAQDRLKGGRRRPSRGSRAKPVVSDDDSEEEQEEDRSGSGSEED

Compound | Dmax
Cc1ncsc1-c1ccc(CNC(=O)[C@@H]2C[C@@H](O)CN2C(=O)[C@@H](NC(=O)N2CCN(C(=O)c3cnc(N4C5CCC4CN(c4cc(-c6ccccc6O)nnc4N)C5)nc3)CC2)C(C)(C)C)cc1 [I-343] | > 90%
Cc1ncsc1-c1ccc(CNC(=O)[C@@H]2C[C@@H](O)CN2C(=O)[C@@H](NC(=O)C2(F)CC2)C2CCC(N(C)CCCc3cnc(N4C5CCC4CN(c4cc(-c6ccccc6O)nnc4N)C5)nc3)CC2)cc1 (stereo partly drawn) [I-518] | 50 to 70%
Cc1ncsc1-c1ccc(CNC(=O)[C@@H]2C[C@@H](O)CN2C(=O)[C@@H](NC(=O)Cc2ccc(-c3ccc(N4CCC(Cn5cc(-c6cc(-c7ccccc7O)nnc6N)cn5)CC4)cc3)cc2)C(C)(C)C)cc1 [I-508] | < 50%
Cc1ncsc1-c1ccc(CNC(=O)[C@@H]2C[C@@H](O)CN2C(=O)[C@@H](NC(=O)CCCC#Cc2cnc(N3C4CCC3CN(c3cc(-c5ccccc5O)nnc3N)C4)nc2)C(C)(C)C)cc1 [I-341] | > 90%
Cc1ncsc1-c1ccc(CNC(=O)[C@@H]2C[C@@H](O)CN2C(=O)[C@@H](NC(=O)[C@H]2C[C@@H](N3CCC(n4cc(-c5cc(-c6ccccc6O)nnc5N)cn4)CC3)C2)C(C)(C)C)cc1 [I-358] | > 90%
Cc1ncsc1-c1ccc(CNC(=O)[C@@H]2C[C@@H](O)CN2C(=O)[C@@H](NC(=O)CCCCCN2CCC(n3cc(-c4cc(-c5ccccc5O)nnc4N)cn3)CC2)C(C)(C)C)cc1 [I-461] | 50 to 70%

Same assay, conditions: MV4-11 cells, 24 h, read-out: SMARCA4 WB MV411 degradation 24 h: Average external-Abs DC50

Compound | DC50
Cc1ncsc1-c1ccc(CNC(=O)[C@@H]2C[C@@H](O)CN2C(=O)[C@@H](NC(=O)N2CCN(C(=O)c3cnc(N4C5CCC4CN(c4cc(-c6ccccc6O)nnc4N)C5)nc3)CC2)C(C)(C)C)cc1 [I-343] | 100 to 500 nM
Cc1ncsc1-c1ccc(CNC(=O)[C@@H]2C[C@@H](O)CN2C(=O)[C@@H](NC(=O)C2(F)CC2)C2CCC(N(C)CCCc3cnc(N4C5CCC4CN(c4cc(-c6ccccc6O)nnc4N)C5)nc3)CC2)cc1 (stereo partly drawn) [I-518] | 100 to 500 nM
Cc1ncsc1-c1ccc(CNC(=O)[C@@H]2C[C@@H](O)CN2C(=O)[C@@H](NC(=O)Cc2ccc(-c3ccc(N4CCC(Cn5cc(-c6cc(-c7ccccc7O)nnc6N)cn5)CC4)cc3)cc2)C(C)(C)C)cc1 [I-508] | > 1000 nM
Cc1ncsc1-c1ccc(CNC(=O)[C@@H]2C[C@@H](O)CN2C(=O)[C@@H](NC(=O)CCCC#Cc2cnc(N3C4CCC3CN(c3cc(-c5ccccc5O)nnc3N)C4)nc2)C(C)(C)C)cc1 [I-341] | < 100 nM
Cc1ncsc1-c1ccc(CNC(=O)[C@@H]2C[C@@H](O)CN2C(=O)[C@@H](NC(=O)[C@H]2C[C@@H](N3CCC(n4cc(-c5cc(-c6ccccc6O)nnc5N)cn4)CC3)C2)C(C)(C)C)cc1 [I-358] | 100 to 500 nM
Cc1ncsc1-c1ccc(CNC(=O)[C@@H]2C[C@@H](O)CN2C(=O)[C@@H](NC(=O)CCCCCN2CCC(n3cc(-c4cc(-c5ccccc5O)nnc4N)cn3)CC2)C(C)(C)C)cc1 [I-461] | 100 to 500 nM

These compounds were tested against T2, SMARCA2 (Homo sapiens, UniProt P51531) (assay: MSD SMARCA2 degradation in NCI-H1299 cell line (24 h)). Details: NCI-H1299, NCI-H1299 cells.
T2 sequence (P51531 whole entry): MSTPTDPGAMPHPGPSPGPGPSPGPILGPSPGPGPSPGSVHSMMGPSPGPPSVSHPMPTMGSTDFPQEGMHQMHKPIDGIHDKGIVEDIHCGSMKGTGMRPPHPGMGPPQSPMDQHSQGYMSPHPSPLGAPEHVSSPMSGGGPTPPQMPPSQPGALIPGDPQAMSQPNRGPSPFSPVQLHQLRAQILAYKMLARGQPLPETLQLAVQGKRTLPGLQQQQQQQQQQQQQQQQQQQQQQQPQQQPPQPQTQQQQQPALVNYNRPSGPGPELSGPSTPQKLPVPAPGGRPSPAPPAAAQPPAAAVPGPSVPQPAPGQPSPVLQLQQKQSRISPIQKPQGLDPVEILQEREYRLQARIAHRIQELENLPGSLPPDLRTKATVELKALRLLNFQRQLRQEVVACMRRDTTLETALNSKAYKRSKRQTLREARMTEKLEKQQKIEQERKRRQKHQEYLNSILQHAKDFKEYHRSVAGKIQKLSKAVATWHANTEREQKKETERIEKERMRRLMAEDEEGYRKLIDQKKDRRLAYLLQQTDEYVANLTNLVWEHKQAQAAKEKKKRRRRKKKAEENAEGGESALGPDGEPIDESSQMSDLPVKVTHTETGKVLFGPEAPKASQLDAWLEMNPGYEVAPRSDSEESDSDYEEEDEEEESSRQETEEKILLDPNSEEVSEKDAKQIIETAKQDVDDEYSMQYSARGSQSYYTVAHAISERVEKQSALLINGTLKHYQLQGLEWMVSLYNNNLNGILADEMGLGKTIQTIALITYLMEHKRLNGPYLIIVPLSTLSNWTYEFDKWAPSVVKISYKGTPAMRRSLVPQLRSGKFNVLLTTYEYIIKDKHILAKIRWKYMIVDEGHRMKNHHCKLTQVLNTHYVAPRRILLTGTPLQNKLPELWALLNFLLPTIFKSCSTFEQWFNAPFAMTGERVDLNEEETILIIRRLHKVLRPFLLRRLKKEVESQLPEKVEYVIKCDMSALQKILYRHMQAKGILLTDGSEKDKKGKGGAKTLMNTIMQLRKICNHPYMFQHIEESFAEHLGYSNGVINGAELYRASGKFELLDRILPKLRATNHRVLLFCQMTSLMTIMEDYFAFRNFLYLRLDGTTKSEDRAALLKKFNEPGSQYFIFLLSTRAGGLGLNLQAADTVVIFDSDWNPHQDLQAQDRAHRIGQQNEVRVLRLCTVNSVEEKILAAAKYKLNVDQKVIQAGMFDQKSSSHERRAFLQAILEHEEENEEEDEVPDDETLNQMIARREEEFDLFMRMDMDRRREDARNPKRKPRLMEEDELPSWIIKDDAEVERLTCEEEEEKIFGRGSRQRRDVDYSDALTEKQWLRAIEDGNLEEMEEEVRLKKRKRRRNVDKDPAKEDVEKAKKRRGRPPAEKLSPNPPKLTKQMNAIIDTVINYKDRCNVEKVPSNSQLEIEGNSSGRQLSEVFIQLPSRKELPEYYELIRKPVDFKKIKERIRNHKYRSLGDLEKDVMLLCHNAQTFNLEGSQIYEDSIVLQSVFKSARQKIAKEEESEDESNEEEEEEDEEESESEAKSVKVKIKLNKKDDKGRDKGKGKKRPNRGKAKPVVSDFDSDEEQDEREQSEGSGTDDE
Format: cell-based
Parameters: HC: NCI-H1299 cells treated with DMSO; host or cells: NCI-H1299
Summary of the method: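 SMARCA2 measured by MSD electrochemiluminescence (primary 0.3 ug/ml, secondary 1 ug/ml) on lysates from NCI-H1299 cells exposed to compounds for 24 h across nine 3-fold dilutions. Signal scaled from A2780 cells (no SMARCA2) to DMSO-treated H1299 controls, and maximal degradation after 24 h reported in letter categories.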

Dmax | Compound
50 to 70% | Cc1ncsc1-c1ccc(CNC(=O)[C@@H]2C[C@@H](O)CN2C(=O)[C@@H](NC(=O)CCCCCN2CCC(n3cc(-c4cc(-c5ccccc5O)nnc4N)cn3)CC2)C(C)(C)C)cc1 [I-461]

Same assay, conditions: NCI-H1299 cells, read-out: SMARCA2 MSD H1299 degradation 24 h: External Abs-DC50

DC50 | Compound
501 to 1000 nM | Cc1ncsc1-c1ccc(CNC(=O)[C@@H]2C[C@@H](O)CN2C(=O)[C@@H](NC(=O)CCCCCN2CCC(n3cc(-c4cc(-c5ccccc5O)nnc4N)cn3)CC2)C(C)(C)C)cc1 [I-461]

These compounds were tested against T2, SMARCA2 (assay: MSD SMARCA2 degradation in A549 cell line). Details: A549, A549 cells, 24 h.
Format: cell-based
Summary of the method: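 SMARCA2 remaining was measured by MSD electrochemiluminescence on RIPA lysates (anti-SMARCA2 plus SULFO-TAG anti-rabbit). Prior exposure: 24 h of A549 cells to a 10-point, 3-fold dilution series topping at 1000 nM final; Dmax % given as graded codes.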

Compound | Dmax
Cc1ncsc1-c1ccc(CNC(=O)[C@@H]2C[C@@H](O)CN2C(=O)[C@@H](NC(=O)N2CCN(C(=O)c3cnc(N4C5CCC4CN(c4cc(-c6ccccc6O)nnc4N)C5)nc3)CC2)C(C)(C)C)cc1 [I-343] | < 50%
Cc1ncsc1-c1ccc(CNC(=O)[C@@H]2C[C@@H](O)CN2C(=O)[C@@H](NC(=O)C2(F)CC2)C2CCC(N(C)CCCc3cnc(N4C5CCC4CN(c4cc(-c6ccccc6O)nnc4N)C5)nc3)CC2)cc1 (stereo partly drawn) [I-518] | < 50%
Cc1ncsc1-c1ccc(CNC(=O)[C@@H]2C[C@@H](O)CN2C(=O)[C@@H](NC(=O)Cc2ccc(-c3ccc(N4CCC(Cn5cc(-c6cc(-c7ccccc7O)nnc6N)cn5)CC4)cc3)cc2)C(C)(C)C)cc1 [I-508] | < 50%
Cc1ncsc1-c1ccc(CNC(=O)[C@@H]2C[C@@H](O)CN2C(=O)[C@@H](NC(=O)CCCC#Cc2cnc(N3C4CCC3CN(c3cc(-c5ccccc5O)nnc3N)C4)nc2)C(C)(C)C)cc1 [I-341] | > 90%
Cc1ncsc1-c1ccc(CNC(=O)[C@@H]2C[C@@H](O)CN2C(=O)[C@@H](NC(=O)[C@H]2C[C@@H](N3CCC(n4cc(-c5cc(-c6ccccc6O)nnc5N)cn4)CC3)C2)C(C)(C)C)cc1 [I-358] | 70 to 90%

Same assay, conditions: A549 cells, 24 h, read-out: SMARCA2 MSD A549 degradation 24 h: Average external-Abs DC50

Compound | DC50
Cc1ncsc1-c1ccc(CNC(=O)[C@@H]2C[C@@H](O)CN2C(=O)[C@@H](NC(=O)N2CCN(C(=O)c3cnc(N4C5CCC4CN(c4cc(-c6ccccc6O)nnc4N)C5)nc3)CC2)C(C)(C)C)cc1 [I-343] | > 1000 nM
Cc1ncsc1-c1ccc(CNC(=O)[C@@H]2C[C@@H](O)CN2C(=O)[C@@H](NC(=O)C2(F)CC2)C2CCC(N(C)CCCc3cnc(N4C5CCC4CN(c4cc(-c6ccccc6O)nnc4N)C5)nc3)CC2)cc1 (stereo partly drawn) [I-518] | > 1000 nM
Cc1ncsc1-c1ccc(CNC(=O)[C@@H]2C[C@@H](O)CN2C(=O)[C@@H](NC(=O)Cc2ccc(-c3ccc(N4CCC(Cn5cc(-c6cc(-c7ccccc7O)nnc6N)cn5)CC4)cc3)cc2)C(C)(C)C)cc1 [I-508] | > 1000 nM
Cc1ncsc1-c1ccc(CNC(=O)[C@@H]2C[C@@H](O)CN2C(=O)[C@@H](NC(=O)CCCC#Cc2cnc(N3C4CCC3CN(c3cc(-c5ccccc5O)nnc3N)C4)nc2)C(C)(C)C)cc1 [I-341] | 100 to 500 nM
Cc1ncsc1-c1ccc(CNC(=O)[C@@H]2C[C@@H](O)CN2C(=O)[C@@H](NC(=O)[C@H]2C[C@@H](N3CCC(n4cc(-c5cc(-c6ccccc6O)nnc5N)cn4)CC3)C2)C(C)(C)C)cc1 [I-358] | 501 to 1000 nM
